Laboratory results: patent US20150031765A1, “TREATMENT OF COGNITIVE IMPAIRMENT” (priority 2011, published 2015)
Counter-ions that a name gives are not always drawn.

Key:
[1] = test system: scopolamine induced learning and memory deficit; assay: Morris water maze test, scopolamine induced learning and memory deficit in rats; format: in vivo, Sprague-Dawley male rats; conditions: for average time to locate the submerged platform: Day 1 of acquisition trials, whole group
Experimental: The Morris water maze test is a classical cognitive test for evaluation of spatial learning and memory in rodents. […] 60 Sprague-Dawley male rats were used in the present study. The animals were housed in cages in groups of four rats per cage. All rats were fed with food and water ad libitum. The testing apparatus can be described as follows. A circular pool was filled with water (24±1° C.) to the depth of 30 cm. […] Four start positions were at the perimeter of the pool: the first one in the first quadrant, the second one in the second quadrant, the third one in the third quadrant and the last one in the fourth quadrant. The rats were trained to escape from water by swimming to a hidden platform whose location was only identified using visual cues attached to the curtain around the pool. Visual cues had different colors and dimensions and were kept constant during the whole experiment. All rats were trained in the swimming pool for 60 seconds without the platform. […] The training procedure included 4 trials per day with 4 different and randomized starting positions. In each trial, the time of rat to reach the platform (escape latency) was recorded, and then the rat was allowed to stay on the platform for 15 seconds. […] The experimental group setting is described in Table 3. […] For practical reasons, the study was divided into two sessions (Table 4). Each session included 6 groups, and each group included 5 rats. Each session took 10 days to complete. […] On day 6, each rat was placed in the swimming pool with no platform to locate the platform site for 60 seconds. […] Any Maze software was used for video tracking and data collection during the whole acquisition trial and probe trial. In acquisition trial, escape latency was recorded. In probe trial, time spent in target and swimming speed was recorded. Data were analyzed and graphed by Graph Pad Prism 5.

[2] = test system: memory dysfunction of scopolamine-treated rats; conditions: Morris water maze test; cited from earlier work
[3] = Day 1, session 1, 250 mg/kg po + scopolamine 0.5 mg/kg ip
[4] = Day 1, session 2, 250 mg/kg po + scopolamine 0.5 mg/kg ip
[5] = Day 2, session 1, 250 mg/kg po + scopolamine 0.5 mg/kg ip
[6] = Day 2, session 2, 250 mg/kg po + scopolamine 0.5 mg/kg ip
[7] = Day 3, session 1, 250 mg/kg po + scopolamine 0.5 mg/kg ip
[8] = Day 3, session 2, 250 mg/kg po + scopolamine 0.5 mg/kg ip
[9] = Day 4, session 1, 250 mg/kg po + scopolamine 0.5 mg/kg ip
[10] = Day 4, session 2, 250 mg/kg po + scopolamine 0.5 mg/kg ip
[11] = Day 5, session 1, 250 mg/kg po + scopolamine 0.5 mg/kg ip
[12] = Day 5, session 2, 250 mg/kg po + scopolamine 0.5 mg/kg ip
[13] = Day 6, session 1, 250 mg/kg po + scopolamine 0.5 mg/kg ip on days 1-5
[14] = Day 6, session 2, 250 mg/kg po + scopolamine 0.5 mg/kg ip on days 1-5, in s

With C[C@@]12CC[C@@H]3[C@@](CC[C@H]4[C@@]3(C)CCC[C@@]4(C)C(=O)O)(CC1=O)C2 (single isomer, unassigned; ent-16) [Isosteviol, ent-16-ketobeyeran-19-oic acid] the “effect on learning and memory deficit induced by scopolamine, probe trials (in words)” value (“effect … probe trials (in words)” for short) ([1]; 80 mg/kg) was “significantly attenuated”, the “effect … probe trials (in words)” value ([1]; 250 mg/kg) was “not” and the “Latency to escape in acquisition trial” value ([1]; Day 1, session 1, 80 mg/kg po + scopolamine 0.5 mg/kg ip) was 46.46 ± 4.50 s. The “Latency to escape in acquisition trial” value [1, 3] was 46.16 ± 2.48 s, the “Latency to escape in acquisition trial” value ([1]; Day 1, session 2, 80 mg/kg po + scopolamine 0.5 mg/kg ip) was 45.20 ± 6.40 s and the “Latency to escape in acquisition trial” value [1, 4] was 48.46 ± 4.49 s. For the same molecule, the “average time to locate the submerged platform” value (“average time” for short) ([1]; 80 mg/kg po + scopolamine) was 45.83 ± 3.70 s, the “average time” value ([1]; 250 mg/kg po + scopolamine) was 47.31 ± 2.45 s and the “Latency to escape in acquisition trial” value ([1]; Day 2, session 1, 80 mg/kg po + scopolamine 0.5 mg/kg ip) was 45.24 ± 7.87 s. For the same molecule, the “Latency to escape in acquisition trial” value [1, 5] was 43.94 ± 5.18 s, the “Latency to escape in acquisition trial” value ([1]; Day 2, session 2, 80 mg/kg po + scopolamine 0.5 mg/kg ip) was 41.88 ± 3.19 s and the “Latency to escape in acquisition trial” value [1, 6] was 50.76 ± 3.90 s. For the same molecule, the “Latency to escape in acquisition trial” value ([1]; Day 3, session 1, 80 mg/kg po + scopolamine 0.5 mg/kg ip) was 40.42 ± 5.48 s, the “Latency to escape in acquisition trial” value [1, 7] was 48.62 ± 5.64 s and the “Latency to escape in acquisition trial” value ([1]; Day 3, session 2, 80 mg/kg po + scopolamine 0.5 mg/kg ip) was 36.04 ± 5.50 s. The “Latency to escape in acquisition trial” value [1, 8] was 40.42 ± 4.57 s, the “Latency to escape in acquisition trial” value ([1]; Day 4, session 1, 80 mg/kg po + scopolamine 0.5 mg/kg ip) was 37.84 ± 4.36 s and the “Latency to escape in acquisition trial” value [1, 9] was 44.36 ± 6.54 s. The “Latency to escape in acquisition trial” value ([1]; Day 4, session 2, 80 mg/kg po + scopolamine 0.5 mg/kg ip) was 38.74 ± 5.25 s, the “Latency to escape in acquisition trial” value [1, 10] was 41.58 ± 6.33 s and the “Latency to escape in acquisition trial” value ([1]; Day 5, session 1, 80 mg/kg po + scopolamine 0.5 mg/kg ip) was 27.14 ± 4.30 s. For the same molecule, the “Latency to escape in acquisition trial” value [1, 11] was 41.44 ± 7.24 s, the “Latency to escape in acquisition trial” value ([1]; Day 5, session 2, 80 mg/kg po + scopolamine 0.5 mg/kg ip) was 33.38 ± 6.04 s and the “Latency to escape in acquisition trial” value [1, 12] was 35.24 ± 7.74 s. The “Time spent in target quadrant in probe trial” value (shortened to “Time spent in target quadrant”) ([1]; Day 6, session 1, 80 mg/kg po + scopolamine 0.5 mg/kg ip on days 1-5) was 19.80 ± 1.19 s, the “Time spent in target quadrant” value [1, 13] was 16.00 ± 2.37 s and the “Time spent in target quadrant” value ([1]; Day 6, session 2, 80 mg/kg po + scopolamine 0.5 mg/kg ip on days 1-5, in s) was 17.28 ± 1.11. For the same molecule, the “Time spent in target quadrant” value [1, 14] was 16.50 ± 1.61 and the visible behavioral abnormalities ([1]; Morris water maze study) was “no visible behavioral abnormalities”.

For COc1cc2c(cc1OC)C(=O)C(CC1CCN(Cc3ccccc3)CC1)C2 (stereo not drawn) [Donepezil, Donepezil hydrochloride], the “effect … probe trials (in words)” value ([1]; 0.1 mg/kg, vs scopolamine only group) was “significantly attenuated”, the “Latency to escape in acquisition trial” value ([1]; Day 1, session 1, 0.1 mg/kg ip + scopolamine 0.5 mg/kg ip) was 48.52 ± 5.50 s and the “Latency to escape in acquisition trial” value ([1]; Day 1, session 2, 0.1 mg/kg ip + scopolamine 0.5 mg/kg ip) was 45.44 ± 5.40 s. For the same molecule, the “average time” value ([1]; 0.1 mg/kg ip + scopolamine) was 46.98 ± 3.67 s, the “Latency to escape in acquisition trial” value ([1]; Day 2, session 1, 0.1 mg/kg ip + scopolamine 0.5 mg/kg ip) was 44.50 ± 2.48 s and the “Latency to escape in acquisition trial” value ([1]; Day 2, session 2, 0.1 mg/kg ip + scopolamine 0.5 mg/kg ip) was 43.18 ± 7.85 s. For the same molecule, the “Latency to escape in acquisition trial” value ([1]; Day 3, session 1, 0.1 mg/kg ip + scopolamine 0.5 mg/kg ip) was 35.92 ± 8.22 s, the “Latency to escape in acquisition trial” value ([1]; Day 3, session 2, 0.1 mg/kg ip + scopolamine 0.5 mg/kg ip) was 37.06 ± 4.26 s and the “Latency to escape in acquisition trial” value ([1]; Day 4, session 1, 0.1 mg/kg ip + scopolamine 0.5 mg/kg ip) was 36.04 ± 4.78 s. For the same molecule, the “Latency to escape in acquisition trial” value ([1]; Day 4, session 2, 0.1 mg/kg ip + scopolamine 0.5 mg/kg ip) was 34.20 ± 6.89 s, the “Latency to escape in acquisition trial” value ([1]; Day 5, session 1, 0.1 mg/kg ip + scopolamine 0.5 mg/kg ip) was 26.86 ± 3.09 s and the “Latency to escape in acquisition trial” value ([1]; Day 5, session 2, 0.1 mg/kg ip + scopolamine 0.5 mg/kg ip) was 30.50 ± 5.78 s. The “Time spent in target quadrant” value ([1]; Day 6, session 1, 0.1 mg/kg ip + scopolamine 0.5 mg/kg ip on days 1-5) was 18.84 ± 3.22 s and the “Time spent in target quadrant” value ([1]; Day 6, session 2, 0.1 mg/kg ip + scopolamine 0.5 mg/kg ip on days 1-5, in s) was 19.40 ± 1.09.

For CN1[C@@H]2C[C@@H](OC(=O)[C@H](CO)c3ccccc3)C[C@H]1[C@@H]1O[C@@H]12 [Scopolamine], the “average time” value ([1]; scopolamine 0.5 mg/kg ip alone) was 46.11 ± 2.98 s, the “latency to the submerged platform in acquisition trials (effect in words)” value ([1]; Day 5, scopolamine 0.5 mg/kg) was “significantly increased” and the “Time spent in target quadrant” value ([1]; Day 6, session 1, scopolamine 0.5 mg/kg ip alone (0.5% MC po) on days 1-5) was 15.70 ± 1.42 s. For the same molecule, the “Time spent in target quadrant” value ([1]; Day 6, session 2, scopolamine 0.5 mg/kg ip alone (0.5% MC po) on days 1-5, in s) was 12.30 ± 1.24 and the “time to locate in target quadrant in probe trials (effect in words)” value ([1]; scopolamine 0.5 mg/kg) was “reduced”.

For C=C1C[C@@]23CC[C@H]4[C@@](C)(CCC[C@@]4(C)C(=O)O[C@@H]4O[C@H](CO)[C@@H](O)[C@H](O)[C@H]4O)[C@@H]2CC[C@]1(O[C@@H]1O[C@H](CO)[C@@H](O)[C@H](O)[C@H]1O[C@@H]1O[C@H](CO)[C@@H](O)[C@H](O)[C@H]1O)C3 [Stevioside], the “effect in cognitive deficits of rats (in words)” value [2] is given as “memory-preservative effect”, the “effect … probe trials (in words)” value ([1]; 250 mg/kg) is given as “significantly reversed” and the “Latency to escape in acquisition trial” value [1, 3] is given as 44.98 ± 5.53 s. For the same molecule, the “Latency to escape in acquisition trial” value [1, 4] was 46.48 ± 3.66 s, the “average time” value ([1]; 250 mg/kg po + scopolamine) was 45.73 ± 3.14 s and the “Latency to escape in acquisition trial” value [1, 5] was 45.78 ± 6.95 s. The “Latency to escape in acquisition trial” value [1, 6] was 40.44 ± 3.63 s, the “Latency to escape in acquisition trial” value [1, 7] was 44.80 ± 5.46 s and the “Latency to escape in acquisition trial” value [1, 8] was 39.46 ± 9.62 s. The “Latency to escape in acquisition trial” value [1, 9] was 41.74 ± 6.39 s, the “Latency to escape in acquisition trial” value [1, 10] was 35.78 ± 4.95 s and the “Latency to escape in acquisition trial” value [1, 11] was 30.86 ± 6.57 s. For the same molecule, the “Latency to escape in acquisition trial” value [1, 12] was 31.08 ± 3.33 s, the “Time spent in target quadrant” value [1, 13] was 20.78 ± 3.75 s and the “Time spent in target quadrant” value [1, 14] was 21.10 ± 2.16.
